Marks after values point to notes of the source that are not given here. Blank lines part the entries; values can stand above or below the molecule they belong to.
What was measured:
Type in all cases: in vivo, Kunming mice
[1] = Pharmacokinetics of GQD constituents in the systemic circulation of mice after oral GQD; settings: for AUC(0-t): read-out: AUC0–24 h
Description: (§1) Fifty-four Kunming mice were randomly divided into nine groups according to body weight and gender (3 male and three female in each group). Each group was orally administered with water solution (0.2 ml/10 g body weight) of the GQD extract powder at the dosage of 6.1 g/kg body weight. The dosage of GQD extract powder equals to 18 g/kg herbal pieces of GQD, which is equivalent to its clinical dosage. At each designed time point (0.08, 0.25, 0.5, 1, 2, 4, 8, 12, and 24 h) after oral administration, six mice were anesthetized with ether, and blood was collected from the portal vein (about 0.2 ml, aspirated in a 1 ml heparinized syringe) and then the systemic circulation (about 0.2 ml, collected in heparinized tubes after removal of the eyeball) of the mice to prepare plasma samples, and the livers and the colons were removed to prepare respective homogenate. After pretreatment, the concentrations of 19 major constituents of GQD in each sample were measured by the validated LC-MS/MS method (see “2.3”). Then the C-T curves of the constituents in the plasma and the tissue homogenates were respectively drawn and their pharmacokinetic parameters were respectively calculated.
(§2) It should be noted that the pharmacokinetic parameters of a GQD constituent was calculated based on its average concentration in six mice at each time point. The results were expressed as mean ± SD.

[2] = Pharmacokinetics of GQD constituents in the portal vein of mice after oral GQD; settings: for AUC(0-t): read-out: AUC0–24 h
Description: as §1, §2

[3] = Pharmacokinetics/tissue distribution of GQD constituents in the livers of mice after oral GQD; settings: for Kp: both sexes
Description: (§3) The liver and the colon homogenates were prepared with 10 times (V: W) the volume of ascorbic acid solution (200 μg/ml). Then the homogenates were pretreated as plasma to obtain the tissue samples for LC-MS/MS analysis. Fifty-four Kunming mice were randomly divided into nine groups according to body weight and gender (3 male and three female in each group). […] Then the C-T curves of the constituents in the plasma and the tissue homogenates were respectively drawn and their pharmacokinetic parameters were respectively calculated. […] It should be noted that the pharmacokinetic parameters of a GQD constituent was calculated based on its average concentration in six mice at each time point. The results were expressed as mean ± SD.

[4] = Pharmacokinetics/tissue distribution of GQD constituents in the colons of mice after oral GQD
Description: as §3

[5] = both, Kunming, mouse, systemic circulation plasma, po, […], systemic circulation plasma, mice, oral GQD […], read-out: T1/2 (converted)
[6] = both, Kunming, mouse, systemic circulation plasma, po, […], systemic circulation plasma, mice, oral GQD […], read-out: Tmax
[7] = both, Kunming, mouse, systemic circulation plasma, mice, oral GQD 6.1 g/kg
[8] = systemic circulation plasma, mice, oral GQD […]
[9] = both, Kunming, mouse, portal vein plasma, po, […], portal vein plasma, mice, oral GQD extract […], read-out: Tmax
[10] = both, Kunming, mouse, portal vein plasma, mice, oral GQD extract 6.1 g/kg
[11] = both, Kunming, mouse, portal vein plasma, mice, oral GQD extract 6.1 g/kg, read-out: T1/2 (converted)
[12] = both, Kunming, mouse, liver (homogenate), po, […], liver, mice, oral GQD extract […], read-out: T1/2 (converted)
[13] = both, Kunming, mouse, liver (homogenate), liver, mice, oral GQD extract 6.1 g/kg
[14] = both, Kunming, mouse, liver (homogenate), liver, mice, oral GQD extract 6.1 g/kg, read-out: Tmax
[15] = liver, mice, oral GQD extract […]
[16] = both, Kunming, mouse, colon (homogenate), po, […], colon, mice, oral GQD extract […], read-out: T1/2 (converted)
[17] = both, Kunming, mouse, colon (homogenate), colon, mice, oral GQD extract 6.1 g/kg
[18] = both, Kunming, mouse, colon (homogenate), colon, mice, oral GQD extract 6.1 g/kg, read-out: Tmax
[19] = colon, mice, oral GQD extract […]
[20] = both, Kunming, mouse, in vivo, po, […], T1/2
[21] = both, Kunming, mouse, in vivo, po, […], Tmax
[22] = both, Kunming, mouse, in vivo, po, […]
[23] = Kunming, mouse, in vivo, po, AUC0–24 h liv/AUC0–24 h por
[24] = both, Kunming, mouse, in vivo, systemic circulation plasma, mice, oral GQD 6.1 g/kg
[25] = both, Kunming, mouse, in vivo, portal vein plasma, mice, oral GQD extract 6.1 g/kg
[26] = both, Kunming, mouse, in vivo, liver, mice, oral GQD extract 6.1 g/kg
[27] = both, Kunming, mouse, in vivo, colon, mice, oral GQD extract 6.1 g/kg
[28] = portal vein plasma, mice, oral GQD extract […]

Structure (SMILES): O=c1c(-c2ccc(O)cc2)coc2cc(O[C@@H]3O[C@H](CO)[C@@H](O)[C@H](O)[C@H]3O)ccc12 [Daidzin, daidzin]
Cmax [1, 24]: 49 ng/mL
MRT [1, 24]: 1.8 h
AUC(0-t) [1, 24]: 85.7 ng·h/mL
half-life ([1]; both, Kunming, mouse, in vivo, systemic circulation plasma, mice, oral GQD 6.1 g/kg, read-out: T1/2 (converted)): 1.8 h
Tmax ([1]; both, Kunming, mouse, in vivo, systemic circulation plasma, mice, oral GQD 6.1 g/kg, read-out: Tmax): 0.25 h
Cmax [2, 25]: 76.9 ng/mL
MRT [2, 25]: 2 h
AUC(0-t) [2, 25]: 151 ng·h/mL
half-life ([2]; both, Kunming, mouse, in vivo, portal vein plasma, mice, oral GQD extract 6.1 g/kg, read-out: T1/2 (converted)): 1.8 h
Tmax ([2]; both, Kunming, mouse, in vivo, portal vein plasma, mice, oral GQD extract 6.1 g/kg, read-out: Tmax): 0.25 h
Cmax [3, 26]: 54.1 ng/g
MRT [3, 26]: 3.6 h
half-life ([3]; both, Kunming, mouse, in vivo, liver, mice, oral GQD extract 6.1 g/kg, read-out: T1/2 (converted)): 3.4 h
Tmax ([3]; both, Kunming, mouse, in vivo, liver, mice, oral GQD extract 6.1 g/kg, read-out: Tmax): 0.5 h
Cmax [4, 27]: 114 ng/g
MRT [4, 27]: 9.9 h
half-life ([4]; both, Kunming, mouse, in vivo, colon, mice, oral GQD extract 6.1 g/kg, read-out: T1/2 (converted)): 11 h
Tmax ([4]; both, Kunming, mouse, in vivo, colon, mice, oral GQD extract 6.1 g/kg, read-out: Tmax): 1 h

Structure (SMILES): O=c1c(-c2ccc(O)cc2)coc2cc(O)ccc12 [Daidzein, daidzein]
half-life [1, 20]: 1.5 h
Tmax [1, 21]: 0.25 to 0.5 h
half-life [2, 22]: 2.6 h
Tmax [2, 21]: 0.25 to 0.5 h
T1/2 [3, 22]: 3.6 h
Tmax [3, 22]: 0.25 h
half-life [3, 20]: 3 to 4 h
Tmax [4, 22]: 1 h

Structure (SMILES): c1c2c(cc3c1OCO3)-c1cc3ccc4c(c3c[n+]1CC2)OCO4 [Coptisine, coptisine]
half-life [1, 20]: 10.8 h
Tmax [1, 21]: 0.25 h
half-life [2, 22]: 4.7 h
Tmax [2, 21]: 4 h
Kp [3, 23]: 10.5
Tmax [3, 22]: 2 h
half-life [3, 20]: 3.7 h
Tmax [4, 22]: 4 h
half-life [4, 20]: 4.3 h

Structure (SMILES): O=C(O)[C@H]1O[C@@H](Oc2cc3oc(-c4ccccc4)cc(=O)c3c(O)c2O)[C@H](O)[C@@H](O)[C@@H]1O [Baicalin, baicalin]
half-life [1, 5]: 3.1 h
Tmax [1, 6]: 4 h
Cmax [1, 7]: 1450 ng/mL
MRT [1, 7]: 5.1 h
AUC(0-t) [1, 7]: 8670 ng·h/mL
Tmax [2, 9]: 4 h
Cmax [2, 10]: 8150 ng/mL
MRT [2, 10]: 4.5 h
AUC(0-t) [2, 10]: 46300 ng·h/mL
half-life [2, 11]: 2 h
half-life [3, 12]: 1 to 2 h
Cmax [3, 13]: 5710 ng/g
MRT [3, 13]: 3.7 h
Tmax [3, 14]: 2 h
T1/2 [3, 15]: 1.7 h
half-life [4, 16]: 15 to 19 h
Cmax [4, 17]: 3460 ng/g
MRT [4, 17]: 9.9 h
Tmax [4, 18]: 1 h
T1/2 [4, 19]: 18.6# h

Structure (SMILES): COc1ccc2cc3[n+](cc2c1OC)CCc1cc(O)c(O)cc1-3 [Demethyleneberberine, demethyleneberberine]
T1/2 ([3]; mouse, in vivo, po, […]): 11.1 h
T1/2 ([4]; mouse, in vivo, po, […]): 2.4 h

Structure (SMILES): COc1ccc2cc3[n+](cc2c1O)CCc1cc2c(cc1-3)OCO2 [Berberrubine, berberrubine]
Tmax [2, 9]: 0.25 h
Cmax [2, 10]: 10.3 ng/mL
MRT [2, 10]: 4.4 h
AUC(0-t) [2, 10]: 67 ng·h/mL
half-life [2, 11]: 5.1 h
half-life [3, 12]: 15 to 19 h
Cmax [3, 13]: 186 ng/g
MRT [3, 13]: 11 h
Tmax [3, 14]: 4 h
T1/2 [3, 15]: 18.2# h
half-life [4, 16]: 14.3 h
Cmax [4, 17]: 293 ng/g
MRT [4, 17]: 10.1 h
Tmax [4, 18]: 4 h

Structure (SMILES): O=C1C[C@@H](c2ccc(O)cc2)Oc2cc(O)ccc21 [Liquiritigenin, liquiritigenin]
T1/2 [2, 28]: 5.9 h
Tmax [2, 28]: 2.0 h
Tmax [3, 15]: 0.25 h
T1/2 [4, 19]: 3.4 h
Tmax [4, 19]: 4.0 h

Structure (SMILES): COc1cc2c(cc1OC)-c1cc3ccc(OC)c(OC)c3c[n+]1CC2 [Palmatine, palmatine]
T1/2 [1, 8]: 7.2 h
Tmax [1, 8]: 1.0 h
T1/2 [2, 28]: 3.0 h
Tmax [2, 28]: 4.0 h
T1/2 [3, 15]: 4.6 h
Tmax [3, 15]: 2.0 h
T1/2 [4, 19]: 3.8 h
Tmax [4, 19]: 4.0 h

Next, values leading:

half-life [1, 5]: ~6 h
Tmax [1, 6]: 4 h
Cmax [1, 7]: 196 ng/mL
MRT [1, 7]: 8.4 h
AUC(0-t) [1, 7]: 2120 ng·h/mL
T1/2 [1, 8]: 6.2# h
Tmax [2, 9]: 4 h
Cmax [2, 10]: 643 ng/mL
MRT [2, 10]: 7 h
AUC(0-t) [2, 10]: 5330 ng·h/mL
half-life [2, 11]: 4.7 h
half-life [3, 12]: 6 to 7 h
Cmax [3, 13]: 910 ng/g
MRT [3, 13]: 8.6 h
Tmax [3, 14]: 4 h
T1/2 [3, 15]: 6.6# h
half-life [4, 16]: 4 to 5 h
Cmax [4, 17]: 1830 ng/g
MRT [4, 17]: 7 h
Tmax [4, 18]: 4 h
T1/2 [4, 19]: 4.4 h
Structure (SMILES): CC1(C)[C@@H](O)CC[C@]2(C)[C@H]3C(=O)C=C4[C@@H]5C[C@@](C)(C(=O)O)CC[C@]5(C)CC[C@@]4(C)[C@]3(C)CC[C@@H]12 [Glycyrrhetinic acid, glycyrrhetinic acid]

half-life [1, 20]: 1.5 h
Tmax [1, 21]: 0.25 h
half-life [2, 22]: 2.5 h
Tmax [2, 21]: 0.25 h
Kp ([3]; Kunming, mouse, in vivo, po, AUC0–24 h liv/AUC0–24 h cir): ~5
Kp [3, 23]: 2.4
AUC0–24 h liv/AUC0–24 h cir ([3]; both, Kunming, mouse, in vivo, po): 5.1
Tmax [3, 22]: 4 h
half-life [3, 20]: 19.7 h
Tmax [4, 22]: 0.5 h
half-life [4, 20]: 19.5 h
Structure (SMILES): O=C1C[C@@H](c2ccc(O[C@@H]3O[C@H](CO)[C@@H](O)[C@H](O)[C@H]3O)cc2)Oc2cc(O)ccc21 [Liquiritin, liquiritin]

T1/2 ([1]; mouse, in vivo, po, […]): 3.9 h
T1/2 ([2]; mouse, in vivo, po, […]): 2.6 h
AUC0–24 h liv/AUC0–24 h cir ([3]; mouse, in vivo, po): 0.15
AUC0–24 h liv/AUC0–24 h por ([3]; mouse, in vivo, po): 0.03
T1/2 ([3]; mouse, in vivo, po, […]): 16.2 h
Structure (SMILES): COc1c(O[C@@H]2O[C@H](C(=O)O)[C@@H](O)[C@H](O)[C@H]2O)cc(O)c2c(=O)cc(-c3ccccc3)oc12 [Wogonoside, wogonoside]

half-life [1, 5]: 1.5 h
Tmax [1, 6]: 2 h
Cmax [1, 7]: 64.7 ng/mL
MRT [1, 7]: 3.6 h
AUC(0-t) [1, 7]: 300 ng·h/mL
Tmax [2, 9]: 2 h
Cmax [2, 10]: 1220 ng/mL
MRT [2, 10]: 3.3 h
AUC(0-t) [2, 10]: 4510 ng·h/mL
half-life [2, 11]: 1 h
half-life [3, 12]: 2 to 3 h
Cmax [3, 13]: 839 ng/g
MRT [3, 13]: 5 h
Tmax [3, 14]: 4 h
T1/2 [3, 15]: 2.6 h
half-life [4, 16]: 2 to 3 h
Cmax [4, 17]: 535 ng/g
MRT [4, 17]: 6.1 h
Tmax [4, 18]: 4 h
T1/2 [4, 19]: 3.2 h
Structure (SMILES): COc1c(O)cc(O)c2c(=O)cc(-c3ccccc3)oc12 [Wogonin, wogonin]

T1/2 ([2]; mouse, in vivo, po, […]): 5.6 h
AUC0–24 h liv/AUC0–24 h cir ([3]; mouse, in vivo, po): 9.9
AUC0–24 h liv/AUC0–24 h por ([3]; mouse, in vivo, po): 3.8
T1/2 ([4]; mouse, in vivo, po, […]): 3.3 h
Structure (SMILES): COc1cc2c(cc1OC)-c1cc3ccc4c(c3c[n+]1CC2)OCO4 [Epiberberine, epiberberine]

Tmax [2, 9]: 2 h
Cmax [2, 10]: 77.1 ng/mL
MRT [2, 10]: 3.7 h
AUC(0-t) [2, 10]: 422 ng·h/mL
half-life [2, 11]: 2.9 h
half-life [3, 12]: 3.8 h
Cmax [3, 13]: 148 ng/g
MRT [3, 13]: 2.8 h
Tmax [3, 14]: 1 h
half-life [4, 16]: 3 to 4 h
Cmax [4, 17]: 2010 ng/g
MRT [4, 17]: 4.8 h
Tmax [4, 18]: 2 h
T1/2 [4, 19]: 3.3 h
Structure (SMILES): CC1(C)[C@@H](O[C@H]2O[C@H](C(=O)O)[C@@H](O)[C@H](O)[C@H]2O[C@@H]2O[C@H](C(=O)O)[C@@H](O)[C@H](O)[C@H]2O)CC[C@]2(C)[C@H]3C(=O)C=C4[C@@H]5C[C@@](C)(C(=O)O)CC[C@]5(C)CC[C@@]4(C)[C@]3(C)CC[C@@H]12 [Glycyrrhizic acid, glycyrrhizic acid]
